The values that follow are results of earlier work, collected in patent publication US10100341B2, “Tailored oils produced from recombinant oleaginous microorganisms” (Corbion Biotech, Inc., priority 2011, dated 2018).

This series relates to Rhodococcus opacus. The conditions noted are these: 1 mg/ml thiostrepton; cited from earlier work.

SMILES strings stand for the structures.

Take `C=C(NC(=O)C(=C)NC(=O)c1csc(C2=N[C@@H]3c4csc(n4)[C@H]4NC(=O)c5csc(n5)[C@H]([C@](C)(O)[C@@H](C)O)NC(=O)[C@H]5CSC(=N5)/C(=C/C)NC(=O)[C@H]([C@@H](C)O)NC(=O)c5csc(n5)[C@]3(CC2)NC(=O)[C@H](C)NC(=O)C(=C)NC(=O)[C@H](C)NC(=O)[C@H]([C@@H](C)CC)N[C@@H]2C=Cc3c([C@H](C)O)cc(nc3[C@H]2O)C(=O)O[C@@H]4C)n1)C(N)=O` [thiostrepton]: the “propagation of untransformed cells in medium comprising the agent” value was “unable to propagate”.
